103 molecules from ChEMBL document CHEMBL3507680, “University of Dundee, Gates Library screen for HepG2 cell viability” can be followed below.

The nature of the series: Human HepG2 cell viability assay in 384 well format. The series is classed as toxicity, cell-based. Set-up: dose 125 nL, time 70.5 hour; concentration not given beside the values. To be noted: HepG2 cells, read-out: Inhibition.
On to `O=c1c2ccccc2nc2n1C(CSc1ccc(Br)cc1)CN2` (stereo not drawn), for which the cytotoxicity at 70.5 h was 0.264%.

For the molecule `O=c1c2ccccc2nc2n1C(CSc1ccc(F)cc1)CN2` (stereo not drawn), the cytotoxicity at 70.5 h came to 28.4%.

In the case of `CCN(CC)S(=O)(=O)c1cc(Br)ccc1OC`, the cytotoxicity at 70.5 h was -7.07%.

Consider `Cc1ccc(SCC2CNc3nc4ccccc4c(=O)n32)c(C)c1` (stereo not drawn), for which the cytotoxicity at 70.5 h was 20%.

As for `CCOC(=O)Cn1ccc(O)c(Cc2ccc(Cl)cc2Cl)c1=O`, the cytotoxicity at 70.5 h came out at 0.692%.

Consider `O=c1c(Cc2ccccc2)c(O)ccn1Cc1ccco1`, for which the cytotoxicity at 70.5 h was 0.508%.

Take `Cc1nc(N)ncc1C(=O)N1CCCC1(C)C(=O)N(C)C` (stereo not drawn): the cytotoxicity at 70.5 h was -3.98%.

On to `CC(=O)Nc1ccc(CCC2(NC(=O)C3CC3)CCCCC2)cn1`, for which the cytotoxicity at 70.5 h was -0.0205%.

Turning to `Cc1cc2ccncc2n1CC1(O)CCN(C(=O)c2cccnc2)CC1`, the cytotoxicity at 70.5 h was -0.954%.

`Cc1ncc(-c2ccccn2)c(CCNC(=O)C2CCCC2)n1`: the cytotoxicity at 70.5 h was found to be 14.1%.

For the molecule `Cc1ncc(-c2ccccn2)c(CCNC(=O)CCC2CCCO2)n1` (stereo not drawn), the cytotoxicity at 70.5 h amounted to 3.67%.

With `CCn1cc(S(=O)(=O)N2CCCCCC2c2cc(C)no2)cn1` (stereo not drawn), the cytotoxicity at 70.5 h turned out to be 0.308%.

Take `Cc1nc(C)n(CC(=O)N2CCCC(c3nc(C)n4c(C)csc34)C2)n1` (stereo not drawn): the cytotoxicity at 70.5 h amounted to 0.595%.

With `Cc1csc2c(C3CCN(C(=O)Cn4cncn4)CC3)nc(C)n12`, the cytotoxicity at 70.5 h was -2.36%.

Turning to `CNC(=O)C1CN(c2cc(C)ncn2)CCN1Cc1ccccc1` (stereo not drawn), the cytotoxicity at 70.5 h was found to be 21.6%.

Regarding `CN(C)c1ncc(I)c(C2CCCN2S(C)(=O)=O)n1` (stereo not drawn), the cytotoxicity at 70.5 h stood at 44.4%.

On to `Cc1cc(Cc2cccc(C(F)(F)F)c2)cc(C2CCCNC2)n1` (stereo not drawn), for which the cytotoxicity at 70.5 h is 2.41%.

As to `Cc1ccc(CC(=O)N2CCOC(c3ncc(CN(C)C)[nH]3)C2)s1` (stereo not drawn), the cytotoxicity at 70.5 h was -6.18%.

Take `Cc1ccc(C(=O)N2CCOC(c3ncc(CN(C)C)[nH]3)C2)cc1F` (stereo not drawn): the cytotoxicity at 70.5 h is -3.52%.

For the molecule `Cc1ccccc1C(=O)N1CCOC(c2ncc(CN(C)C)[nH]2)C1` (stereo not drawn), the cytotoxicity at 70.5 h was -6.83%.

Consider `COc1cccc(CN2CCC(Cc3cnc(CN(C)C)cn3)CC2)c1`, for which the cytotoxicity at 70.5 h is 22.5%.

`CCN1C(=O)CC[C@@H]2N(C(=O)CCn3nccc3C)CCCC[C@@]21C`: the cytotoxicity at 70.5 h is -6.96%.

With `CN1CCN(C(=O)c2ccccc2)CC(Cc2cc(N(C)C)ncn2)C1` (stereo not drawn), the cytotoxicity at 70.5 h was -3.72%.

As for `Cc1cccc(Cc2cc(C)nc(C3CCCNC3)c2)c1` (stereo not drawn), the cytotoxicity at 70.5 h came to 2.77%.

Regarding `O=C(c1ccc2[nH]nnc2c1)N1CC[C@H](O)[C@]2(CCCO2)C1`, the cytotoxicity at 70.5 h was -4.29%.

With `CCNc1ncnc2c1CN(C1CCCNCC1)C(=O)CN2C` (stereo not drawn), the cytotoxicity at 70.5 h was 1.19%.

In the case of `CC(C)CC(=O)Nc1ccccc1Oc1ccsc1C(=O)O`, the cytotoxicity at 70.5 h was -2.03%.

For the molecule `O=c1c(Cc2ccc(Cl)cc2Cl)c(O)ccn1CC1CC1`, the cytotoxicity at 70.5 h is -5.97%.

For `CC(C)(C)C(=O)Nc1ccc(Oc2ccsc2C(=O)O)cc1`, the cytotoxicity at 70.5 h stood at 1.54%.

In the case of `O=C(O)c1sccc1Oc1ccc(NC(=O)C2CC2)cc1`, the cytotoxicity at 70.5 h is -0.448%.

For the molecule `CC(C)(C)OC(=O)N1CCN(c2nnc(Br)s2)CC1`, the cytotoxicity at 70.5 h is 18.7%.

With `CC(C)(C)OC(=O)N1CCCN(c2nnc(Br)s2)CC1`, the cytotoxicity at 70.5 h was -4.55%.

As for `CN(C)c1cc(C(F)(F)F)cc(-c2ccc(C(=O)O)cc2)n1`, the cytotoxicity at 70.5 h was -6.98%.

For `O=C(O)c1cnc(OCC2CC2)c(Br)c1`, the cytotoxicity at 70.5 h is -4.12%.

Consider `O=C(O)c1cc(Br)cnc1OCC1CC1`, for which the cytotoxicity at 70.5 h amounted to 2.88%.

Regarding `O=C(NC1CC1)c1cc(C(F)(F)F)cc(C(F)(F)F)n1`, the cytotoxicity at 70.5 h is -9.57%.

For `OCc1cn(Cc2cccc(C(F)(F)F)c2)nn1`, the cytotoxicity at 70.5 h is -9.88%.

Regarding `COC(=O)c1c(C(F)(F)F)cnc(OC)c1Cl`, the cytotoxicity at 70.5 h is -11.7%.

Turning to `CC(O)c1cn(Cc2ccccc2)nn1` (stereo not drawn), the cytotoxicity at 70.5 h is -6.51%.

As for `COc1ccc(Cn2cc(C(C)O)nn2)cc1` (stereo not drawn), the cytotoxicity at 70.5 h is 20.2%.

Turning to `OC1(CNc2cccc(F)c2)CCNCC1`, the cytotoxicity at 70.5 h is -3.17%.

`Cc1ccc(C(=O)CC(SC2CCCCC2)C(=O)O)cc1` (stereo not drawn): the cytotoxicity at 70.5 h is -2.59%.

In the case of `COC(=O)c1ccc(C)c(N2CCNC2=O)c1`, the cytotoxicity at 70.5 h is -2.21%.

Regarding `COC(=O)CN1CCC(C(F)(F)F)CC1`, the cytotoxicity at 70.5 h was -2.55%.

On to `O=C(CN1CCOCC1)Nc1cc(C(F)(F)F)ccc1-n1cccc1`, for which the cytotoxicity at 70.5 h was -3.59%.

Consider `Cn1c(CN2CCCc3cc(F)cc(F)c32)cc(=O)n(C)c1=O`, for which the cytotoxicity at 70.5 h was -4.68%.

For `Cc1ccc(F)c(S(=O)(=O)N2CCCC2c2ccncc2)c1` (stereo not drawn), the cytotoxicity at 70.5 h is -1.25%.

With `CNC(=O)c1ccc(CN(C)C(=O)Nc2nnc(C(C)C)s2)cc1`, the cytotoxicity at 70.5 h amounted to 2.68%.

In the case of `Cc1ccc(S(=O)(=O)N2CCN(CCCO)CC2)s1`, the cytotoxicity at 70.5 h was -2.4%.

As to `COc1ccc(-n2cnc(Cl)c2CO)cc1`, the cytotoxicity at 70.5 h is -2.44%.

Take `COc1ccc(-c2nc(CCNCc3ccncc3)co2)cc1`: the cytotoxicity at 70.5 h stood at 1.89%.

As for `Cn1cc(C2CCCN2C(=O)c2cnc(-c3ncccn3)s2)cn1` (stereo not drawn), the cytotoxicity at 70.5 h was -1.78%.

Take `N#CC(NC(=O)CCCOc1cccnc1)c1ccc(F)cc1F` (stereo not drawn): the cytotoxicity at 70.5 h was determined as 6.82%.

`CN(C(=O)CSc1ncc[nH]1)C1CC1`: the cytotoxicity at 70.5 h is -3.27%.

As to `Cc1ccc2c(c1)N(C(=O)c1cc[nH]c(=O)c1)CC(C)O2` (stereo not drawn), the cytotoxicity at 70.5 h was -1.21%.

With `CCN(CC1CC1)C(=O)NCc1nnc2n1CCC2`, the cytotoxicity at 70.5 h is 1.57%.

As for `Cc1ccc2c(c1)N(C(=O)c1c[nH]c(C)cc1=O)CC(C)O2` (stereo not drawn), the cytotoxicity at 70.5 h was 28.6%.

Turning to `Cc1ccc(F)cc1C(=O)N1CCOCC12CCCC2`, the cytotoxicity at 70.5 h was -5.21%.

On to `Cc1cc(C(=O)Nc2ccc3c(c2)N(C)CCN(C)C3)on1`, for which the cytotoxicity at 70.5 h was -5.18%.

Turning to `COc1c(CNCCc2c[nH]c3cc(F)ccc23)c(C(C)C)nn1C`, the cytotoxicity at 70.5 h was 4.03%.

Consider `CCc1ccc(C(=O)Nc2ccc3c(c2)N(C)CCN(C)C3)o1`, for which the cytotoxicity at 70.5 h was -8.89%.

For the molecule `CCc1nnsc1C(=O)NCc1nnc2n1CCCCC2`, the cytotoxicity at 70.5 h is -3.94%.

For the molecule `CCc1nnsc1C(=O)NCc1nnc2n1CCC2`, the cytotoxicity at 70.5 h was -2.79%.

With `Cc1cc(C)n(Cc2ccc(C(=O)N3CCOCC3(C)C)cc2)n1`, the cytotoxicity at 70.5 h is 12.1%.

On to `CCC(=O)Nc1ccc(N2CCC(OC)CC2)c(C(F)(F)F)c1`, for which the cytotoxicity at 70.5 h is -4.77%.

Consider `Brc1cccc(-c2noc(C3COCCO3)n2)c1` (stereo not drawn), for which the cytotoxicity at 70.5 h is -9.75%.

In the case of `COc1ccc(C(=O)N2CCOc3ccncc32)cc1`, the cytotoxicity at 70.5 h is -1.92%.

With `CCc1cc2c(N3CCCC(c4ccn[nH]4)C3)ncnc2s1` (stereo not drawn), the cytotoxicity at 70.5 h was found to be 2.73%.

As to `CCc1nc(CS(=O)(=O)Cc2noc(C3CC3)n2)cs1`, the cytotoxicity at 70.5 h was -1.78%.

`C[S+]([O-])CCNC(=O)N1CCSC2(CCCCC2)C1` (stereo not drawn): the cytotoxicity at 70.5 h was -3.78%.

As for `O=C(Cc1ccon1)N1CCc2cc(Br)sc2C1`, the cytotoxicity at 70.5 h was -3.84%.

Take `O=C(NCC(O)CO)Nc1cc(Br)ccc1F` (stereo not drawn): the cytotoxicity at 70.5 h was -1.48%.

For `COc1ccc(C(C)NCc2ccsc2)cc1Cn1cccn1` (stereo not drawn), the cytotoxicity at 70.5 h is -3.16%.

For `CN1CCOC(CNCC(=O)NCCc2ccc3c(c2)OCCO3)C1` (stereo not drawn), the cytotoxicity at 70.5 h came out at 4.64%.

With `CC(C)c1nn(C)cc1CNCc1cccc(N(C)C)c1`, the cytotoxicity at 70.5 h is 6.7%.

For the molecule `CCc1ccc(C(=O)NC[C@H]2CCCN2C(=O)c2ccc(CC)o2)o1`, the cytotoxicity at 70.5 h turned out to be 2.7%.

On to `CCN(Cc1ccc(N(C)C)cc1)S(=O)(=O)c1cc(Br)ccc1OC`, for which the cytotoxicity at 70.5 h is -1.59%.

Regarding `CCOc1ccc(Br)cc1S(=O)(=O)N(CC)Cc1ccc(N(C)C)cc1`, the cytotoxicity at 70.5 h is -3.07%.

Regarding `Cc1cc(NC(=O)C2CCN(c3nnc(C)c(C)c3C#N)CC2)no1`, the cytotoxicity at 70.5 h worked out at 0.58%.

For the molecule `COc1cc(CNC(=O)COC2CCCC2)ccc1O`, the cytotoxicity at 70.5 h was -4.4%.

`Cc1cc(NC(=O)NCCC(=O)N2CCCc3ccccc32)no1`: the cytotoxicity at 70.5 h is -6.7%.

Regarding `CCN(CC)S(=O)(=O)NC1CCN(c2ccc(OC)cc2)CC1`, the cytotoxicity at 70.5 h is -3.82%.

Regarding `COc1ccc(N2CCC(NS(=O)(=O)N(C)C(C)C)CC2)cc1`, the cytotoxicity at 70.5 h is 7.03%.

For `CCN(CCNC(=O)Nc1nnc(C)s1)C(=O)OC(C)(C)C`, the cytotoxicity at 70.5 h was -5.88%.

On to `Cc1nc(CN2CCN(S(=O)(=O)N3CCCCC3)CC2)oc1C`, for which the cytotoxicity at 70.5 h is -4.75%.

On to `COCCN(C)C(=O)NCCc1coc(-c2ccc(C)cc2)n1`, for which the cytotoxicity at 70.5 h was 7.28%.

`Cc1ccc(N2CCCN(C(=O)CCc3ccsc3)CC2)nn1`: the cytotoxicity at 70.5 h was -6.07%.

For the molecule `CN1CCCC(CNC(=O)CN(C)S(=O)(=O)c2cccnc2)C1` (stereo not drawn), the cytotoxicity at 70.5 h worked out at 6.09%.

Regarding `Cc1noc(C)c1CNC(=O)NCCC(=O)N1CCCc2ccccc21`, the cytotoxicity at 70.5 h was determined as 3.77%.

Turning to `CC(C)N(C(=O)Cn1cc(Cl)cn1)c1ccccc1`, the cytotoxicity at 70.5 h was -4.68%.

Regarding `CN1CCN(CCOc2ccc(NC(=O)c3cnc[nH]3)cc2)CC1`, the cytotoxicity at 70.5 h is 6.08%.

Regarding `CN1CCN(CCOc2ccc(NC(=O)c3ccoc3)cc2)CC1`, the cytotoxicity at 70.5 h is -4.12%.

In the case of `Cc1cc(CNC(=O)NCCC(=O)N2CCCc3ccccc32)no1`, the cytotoxicity at 70.5 h was found to be 7.7%.

For `CCC(C(=O)NCCc1coc(-c2ccc(C)cc2)n1)N(C)C` (stereo not drawn), the cytotoxicity at 70.5 h worked out at 3.11%.

In the case of `Cc1nc(CN2CCN(S(=O)(=O)N3CCOCC3)CC2)oc1C`, the cytotoxicity at 70.5 h is -3.19%.

Take `OCCN1CCC(CNCc2cn(-c3ccccc3)nn2)CC1`: the cytotoxicity at 70.5 h is -12.5%.

For the molecule `COCCCn1ccc(NC2CCOCC2)n1`, the cytotoxicity at 70.5 h is -7.45%.

For `CN(CC(=O)NCCC#N)C(c1ccccc1)c1ccccc1`, the cytotoxicity at 70.5 h is -14.5%.

As for `O=C(c1sccc1Br)N1CCOCC1`, the cytotoxicity at 70.5 h was -15.9%.

With `Cc1ncccc1-c1cc2cccnc2n1CCCNC(=O)C(C)(C)C`, the cytotoxicity at 70.5 h amounted to 2.29%.

Consider `CCC(=O)NCCCn1c(-c2cccnc2C)cc2cccnc21`, for which the cytotoxicity at 70.5 h is -1.81%.

With `CC(C)c1nc(-c2ccnc(N3CCNCC3)n2)no1`, the cytotoxicity at 70.5 h was -7.09%.

Regarding `Cc1nc(-c2ccnc(N3CCNCC3)n2)no1`, the cytotoxicity at 70.5 h is -1.44%.
